Columns and labels:
Experiment in all cases: NanoBRET K192
Format in all cases: cell-based
FER = molecular target: T1, FER (Homo sapiens, UniProt P16591); settings: HEK293
T1 construct: purchased Promega (NanoBRET Target Engagement K192 Kinase Selectivity System)
Method: (§1) The K192 selectivity assay was run according to the Draft Promega technical manual, NanoBRET^TM Target Engagement K192 Kinase Selectivity System. Reagents were supplied by Promega (Promega NP 4101). For the assay, DNA from the prepared kinase vector panel plates A and B were mixed with Fugene in 96-well plates (Corning 3917) and incubated at room temperature for 30 min. The NanoLuc® Low control vector pNL1.1.CMV [Nluc/CMV] Vector (Cat.# N1091) and the transfection control vector NanoLuc®-HIPK2 Fusion Vector (Cat.# NV3221) were used as controls.
(§2) HEK293 cells were grown to 75–95% confluency in DMEM (Gibco 11995-065) supplemented with FBS (Avantor 97068-085) at 37 °C in […]. On the first day of the assay, cells were harvested and resuspended in Opti-MEM (Gibco 11058-021) supplemented with 1% FBS (Avantor 97068-085) at 2.5 × 10^5 cells per mL. A volume of 60 μL of cell suspension was mixed with 10 μL of prepared DNA (10X concentration) and 30 μL of Fugene (30 μL/mL in Opti-MEM) as outlined by Promega and incubated overnight at 37 °C in a 5% CO2 incubator.
(§3) On day two of the assay, 5 μL of 20X K10 tracer was prepared and added at concentrations recommended by Promega. Then, 10 μL of test compounds at 100 μM in Opti-MEM (diluted from a 10 mM solution in DMSO) was added to the test wells while an equivalent volume of Opti-MEM was added to the high-control wells. Plates were kept at 37 °C in a 5% CO2 incubator for two hours. After two hours, plates were allowed to equilibrate to room temperature for 15 min. A solution of 3X Complete Substrate plus Inhibitor Solution was freshly prepared, consisting of a 1:166 dilution of NanoBRET™ Nano-Glo® Substrate plus a 1:500 dilution of Extracellular NanoLuc® Inhibitor in Opti-MEM® medium without serum or phenol red. A 50 μL volume of the 3X Complete Substrate plus Inhibitor Solution was added to each assay well, including control wells. After 2–3 min, the plate was shaken at 300 RPM for 10 s, and the donor emission wavelength (450 nm) and acceptor emission wavelength (610 nm) were measured using the Glomax® Discover System.
(§4) As a quality check, the donor signal-to-background ratio was calculated for each individual kinase by dividing the mean donor signal for each kinase by the mean donor signal for the signal-to-background control wells. Fractional occupancy of the test drug for each kinase was determined using the following formula:Occupancy (%) = [1 − (Sample − Bottom)/(Top − Bottom)] × 100 where

PHKG2 = molecular target: T2, PHKG2 (Homo sapiens, UniProt P15735); settings: HEK293
T2 construct: purchased Promega (NanoBRET Target Engagement K192 Kinase Selectivity System)
Method: as §1, §2, §3, §4

MAP3K11 = molecular target: T3, MAP3K11 (Homo sapiens, UniProt Q16584); settings: HEK293
T3 construct: purchased Promega (NanoBRET Target Engagement K192 Kinase Selectivity System)
Method: as §1, §2, §3, §4

PRKX = molecular target: T4, PRKX (Homo sapiens, UniProt P51817); settings: HEK293
T4 construct: purchased Promega (NanoBRET Target Engagement K192 Kinase Selectivity System)
Method: as §1, §2, §3, §4

AURKB = molecular target: T5, AURKB (Homo sapiens, UniProt Q96GD4); settings: HEK293
T5 construct: purchased Promega (NanoBRET Target Engagement K192 Kinase Selectivity System)
Method: as §1, §2, §3, §4

CAMK2D = molecular target: T6, CAMK2D (Homo sapiens, UniProt Q13557); settings: HEK293
T6 construct: purchased Promega (NanoBRET Target Engagement K192 Kinase Selectivity System)
Method: as §1, §2, §3, §4

TNNI3K = molecular target: T7, TNNI3K (Homo sapiens, UniProt Q59H18); settings: HEK293
T7 construct: purchased Promega (NanoBRET Target Engagement K192 Kinase Selectivity System)
Method: as §1, §2, §3, §4

ABL2 = molecular target: T8, ABL2 (Homo sapiens, UniProt P42684); settings: HEK293
T8 construct: purchased Promega (NanoBRET Target Engagement K192 Kinase Selectivity System)
Method: as §1, §2, §3, §4

CDK10 + L2 = molecular target: T9, CDK10 + L2 (Homo sapiens, UniProt Q15131); settings: HEK293
T9 construct: purchased Promega (NanoBRET Target Engagement K192 Kinase Selectivity System)
Method: as §1, §2, §3, §4

CDK3 + E1 = molecular target: T10, CDK3 + E1 (Homo sapiens, UniProt Q00526); settings: HEK293
T10 construct: purchased Promega (NanoBRET Target Engagement K192 Kinase Selectivity System)
T10 sequence (Q00526 whole entry): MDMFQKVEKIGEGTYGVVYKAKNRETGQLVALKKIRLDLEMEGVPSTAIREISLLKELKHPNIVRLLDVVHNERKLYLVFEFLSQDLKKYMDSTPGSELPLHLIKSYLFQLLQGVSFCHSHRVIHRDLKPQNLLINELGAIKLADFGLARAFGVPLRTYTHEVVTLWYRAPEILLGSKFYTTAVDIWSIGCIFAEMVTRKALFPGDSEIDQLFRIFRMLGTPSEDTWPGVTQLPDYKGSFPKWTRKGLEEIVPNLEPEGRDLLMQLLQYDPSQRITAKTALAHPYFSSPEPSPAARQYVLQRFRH
T10 sequence (P24864 whole entry partner): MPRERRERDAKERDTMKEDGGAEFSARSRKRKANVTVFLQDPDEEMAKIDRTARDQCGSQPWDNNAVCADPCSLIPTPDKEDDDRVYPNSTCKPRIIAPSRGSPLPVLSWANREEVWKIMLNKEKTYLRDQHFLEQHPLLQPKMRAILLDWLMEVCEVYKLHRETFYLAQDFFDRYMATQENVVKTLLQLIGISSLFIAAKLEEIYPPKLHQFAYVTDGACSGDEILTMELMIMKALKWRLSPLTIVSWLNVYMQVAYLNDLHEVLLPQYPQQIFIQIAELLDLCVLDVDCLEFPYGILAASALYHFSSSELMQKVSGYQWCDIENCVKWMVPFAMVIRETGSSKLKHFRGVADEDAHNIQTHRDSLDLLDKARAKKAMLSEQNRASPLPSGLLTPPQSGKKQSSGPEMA
Method: as §1, §2, §3, §4

ITK = molecular target: T11, ITK (Homo sapiens, UniProt Q08881); settings: HEK293
T11 construct: purchased Promega (NanoBRET Target Engagement K192 Kinase Selectivity System)
Method: as §1, §2, §3, §4

RON = molecular target: T12, RON (Homo sapiens, UniProt Q04912); settings: HEK293
T12 construct: purchased Promega (NanoBRET Target Engagement K192 Kinase Selectivity System)
Method: as §1, §2, §3, §4

TYRO3 = molecular target: T13, TYRO3 (Homo sapiens, UniProt Q06418); settings: HEK293
T13 construct: purchased Promega (NanoBRET Target Engagement K192 Kinase Selectivity System)
T13 sequence (Q06418 41-890): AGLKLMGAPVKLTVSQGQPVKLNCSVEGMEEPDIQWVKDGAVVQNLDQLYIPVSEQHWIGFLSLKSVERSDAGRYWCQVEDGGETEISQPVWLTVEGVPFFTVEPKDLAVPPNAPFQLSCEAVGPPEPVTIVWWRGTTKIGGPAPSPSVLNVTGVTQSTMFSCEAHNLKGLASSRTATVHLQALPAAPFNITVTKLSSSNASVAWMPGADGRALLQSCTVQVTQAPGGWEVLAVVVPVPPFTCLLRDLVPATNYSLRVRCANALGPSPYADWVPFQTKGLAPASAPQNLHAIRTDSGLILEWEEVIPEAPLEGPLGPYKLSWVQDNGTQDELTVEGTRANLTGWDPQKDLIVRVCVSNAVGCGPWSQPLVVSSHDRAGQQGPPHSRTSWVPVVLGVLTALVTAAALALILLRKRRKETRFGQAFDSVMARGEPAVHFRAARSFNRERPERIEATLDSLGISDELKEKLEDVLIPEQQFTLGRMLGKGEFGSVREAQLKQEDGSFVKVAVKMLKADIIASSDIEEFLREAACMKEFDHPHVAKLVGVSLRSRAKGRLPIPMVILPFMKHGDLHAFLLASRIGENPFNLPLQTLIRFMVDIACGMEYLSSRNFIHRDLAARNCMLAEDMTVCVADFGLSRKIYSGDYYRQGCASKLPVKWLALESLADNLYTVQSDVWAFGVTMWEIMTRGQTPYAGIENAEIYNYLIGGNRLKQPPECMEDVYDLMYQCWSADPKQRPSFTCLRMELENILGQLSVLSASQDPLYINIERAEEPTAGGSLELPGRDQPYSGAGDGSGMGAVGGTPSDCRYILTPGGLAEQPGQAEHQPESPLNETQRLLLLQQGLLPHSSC
Method: as §1, §2, §3, §4

CLK1 = molecular target: T14, CLK1 (Homo sapiens, UniProt P49759)
T14 construct: purchased Promega (NanoBRET Target Engagement K192 Kinase Selectivity System)
T14 sequence (P49759 whole entry): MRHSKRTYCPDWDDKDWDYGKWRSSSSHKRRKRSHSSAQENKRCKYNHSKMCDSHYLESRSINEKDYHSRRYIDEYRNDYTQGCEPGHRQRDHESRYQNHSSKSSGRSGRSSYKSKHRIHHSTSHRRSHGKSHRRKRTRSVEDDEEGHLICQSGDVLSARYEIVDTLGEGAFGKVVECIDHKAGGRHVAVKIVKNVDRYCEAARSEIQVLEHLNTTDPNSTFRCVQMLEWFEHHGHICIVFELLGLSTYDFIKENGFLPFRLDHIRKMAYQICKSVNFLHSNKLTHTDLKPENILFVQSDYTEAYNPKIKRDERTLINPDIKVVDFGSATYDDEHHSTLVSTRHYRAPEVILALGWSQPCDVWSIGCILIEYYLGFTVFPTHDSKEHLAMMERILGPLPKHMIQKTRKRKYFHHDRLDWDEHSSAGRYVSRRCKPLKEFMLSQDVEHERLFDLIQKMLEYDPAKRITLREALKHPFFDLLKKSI
Method: as §1, §2, §3, §4

ERN1 = molecular target: T15, ERN1 (Homo sapiens, UniProt O75460); settings: HEK293
T15 construct: purchased Promega (NanoBRET Target Engagement K192 Kinase Selectivity System)
Method: as §1, §2, §3, §4

PLK3 = molecular target: T16, PLK3 (Homo sapiens, UniProt Q9H4B4); settings: HEK293
T16 construct: purchased Promega (NanoBRET Target Engagement K192 Kinase Selectivity System)
Method: as §1, §2, §3, §4

INSR = molecular target: T17, INSR (Homo sapiens, UniProt P06213); settings: HEK293
T17 construct: purchased Promega (NanoBRET Target Engagement K192 Kinase Selectivity System)
Method: as §1, §2, §3, §4

CSNK2A2 = molecular target: T18, CSNK2A2 (Homo sapiens, UniProt P19784)
T18 construct: expressed in transfected cells; host or cells: HEK293
T18 sequence (P19784 whole entry): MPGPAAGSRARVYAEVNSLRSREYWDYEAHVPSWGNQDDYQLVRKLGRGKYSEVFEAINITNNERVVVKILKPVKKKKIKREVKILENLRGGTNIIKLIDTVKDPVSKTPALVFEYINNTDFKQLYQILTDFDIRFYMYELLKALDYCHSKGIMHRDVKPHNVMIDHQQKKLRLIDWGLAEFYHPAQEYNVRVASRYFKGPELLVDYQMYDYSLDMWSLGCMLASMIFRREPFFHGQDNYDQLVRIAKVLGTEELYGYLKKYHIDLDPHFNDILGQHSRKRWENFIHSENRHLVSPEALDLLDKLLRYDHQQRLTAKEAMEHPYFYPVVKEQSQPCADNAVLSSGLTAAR
Method: as §1, §2, §3, §4

CLK2 = molecular target: T19, CLK2 (Homo sapiens, UniProt P49760)
T19 construct: expressed in transfected cells; host or cells: HEK293
T19 sequence (P49760 whole entry): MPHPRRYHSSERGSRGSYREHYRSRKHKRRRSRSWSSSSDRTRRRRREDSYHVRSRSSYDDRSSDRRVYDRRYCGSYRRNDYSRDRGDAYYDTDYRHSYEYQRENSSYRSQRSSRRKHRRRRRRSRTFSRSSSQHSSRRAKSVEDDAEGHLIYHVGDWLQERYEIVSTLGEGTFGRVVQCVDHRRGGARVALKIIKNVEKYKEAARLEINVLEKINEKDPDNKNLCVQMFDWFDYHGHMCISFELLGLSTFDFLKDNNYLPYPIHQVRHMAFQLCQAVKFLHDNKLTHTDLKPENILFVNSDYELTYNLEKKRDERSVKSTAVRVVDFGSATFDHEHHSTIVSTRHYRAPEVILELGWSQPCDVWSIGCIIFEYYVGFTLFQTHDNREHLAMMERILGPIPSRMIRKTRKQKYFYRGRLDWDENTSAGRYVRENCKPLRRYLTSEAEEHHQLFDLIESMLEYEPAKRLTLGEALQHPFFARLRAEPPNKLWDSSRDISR
Method: as §1, §2, §3, §4

DAPK2 = molecular target: T20, DAPK2 (Homo sapiens, UniProt Q9UIK4)
T20 construct: expressed in transfected cells; host or cells: HEK293
T20 sequence (Q9UIK4 whole entry): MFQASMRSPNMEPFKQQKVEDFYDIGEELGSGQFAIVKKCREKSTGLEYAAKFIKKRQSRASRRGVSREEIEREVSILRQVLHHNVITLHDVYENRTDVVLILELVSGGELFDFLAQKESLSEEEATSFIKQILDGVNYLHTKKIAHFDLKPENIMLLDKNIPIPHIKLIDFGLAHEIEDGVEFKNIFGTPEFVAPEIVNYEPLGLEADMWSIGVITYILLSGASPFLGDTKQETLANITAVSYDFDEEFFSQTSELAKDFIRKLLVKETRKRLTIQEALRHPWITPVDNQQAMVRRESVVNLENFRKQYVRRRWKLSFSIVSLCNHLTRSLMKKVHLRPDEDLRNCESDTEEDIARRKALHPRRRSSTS
Method: as §1, §2, §3, §4

STK16 = molecular target: T21, STK16 (Homo sapiens, UniProt O75716); settings: HEK293
T21 construct: purchased Promega (NanoBRET Target Engagement K192 Kinase Selectivity System)
Method: as §1, §2, §3, §4

BTK = molecular target: T22, BTK (Homo sapiens, UniProt Q06187); settings: HEK293
T22 construct: purchased Promega (NanoBRET Target Engagement K192 Kinase Selectivity System)
T22 sequence (Q06187 whole entry): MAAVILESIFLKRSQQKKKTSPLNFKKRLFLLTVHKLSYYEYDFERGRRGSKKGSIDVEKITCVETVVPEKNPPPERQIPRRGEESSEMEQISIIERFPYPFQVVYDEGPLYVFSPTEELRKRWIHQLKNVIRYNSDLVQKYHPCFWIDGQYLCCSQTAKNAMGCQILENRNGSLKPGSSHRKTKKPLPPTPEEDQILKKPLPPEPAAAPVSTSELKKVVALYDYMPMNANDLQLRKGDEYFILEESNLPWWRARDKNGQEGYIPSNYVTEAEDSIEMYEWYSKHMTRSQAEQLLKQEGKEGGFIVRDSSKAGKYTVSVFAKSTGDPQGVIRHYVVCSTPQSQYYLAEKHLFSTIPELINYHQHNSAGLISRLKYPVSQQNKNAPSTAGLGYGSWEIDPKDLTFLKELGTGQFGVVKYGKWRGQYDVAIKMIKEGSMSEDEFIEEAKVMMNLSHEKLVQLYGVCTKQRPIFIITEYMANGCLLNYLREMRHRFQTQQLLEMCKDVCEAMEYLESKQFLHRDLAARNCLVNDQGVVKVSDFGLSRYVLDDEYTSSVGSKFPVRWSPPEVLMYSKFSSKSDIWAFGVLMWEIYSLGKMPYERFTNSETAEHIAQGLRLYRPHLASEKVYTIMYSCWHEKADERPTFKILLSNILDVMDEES
Method: as §1, §2, §3, §4

TXK = molecular target: T23, TXK (Homo sapiens, UniProt P42681); settings: HEK293
T23 construct: host or cells: HEK293
Method: as §1, §2, §3, §4

SIK3 = molecular target: T24, SIK3 (Homo sapiens, UniProt Q9Y2K2); settings: HEK293
T24 construct: purchased Promega (NanoBRET Target Engagement K192 Kinase Selectivity System)
Method: as §1, §2, §3, §4

EPHB4 = molecular target: T25, EPHB4 (Homo sapiens, UniProt P54760); settings: HEK293
T25 construct: purchased Promega (NanoBRET Target Engagement K192 Kinase Selectivity System)
Method: as §1, §2, §3, §4

SNF1LK2 = molecular target: T26, SNF1LK2 (Homo sapiens, UniProt Q9H0K1); settings: HEK293
T26 construct: host or cells: HEK293
Method: as §1, §2, §3, §4

MAP4K2 = molecular target: T27, MAP4K2 (Homo sapiens, UniProt Q12851); settings: HEK293
T27 construct: purchased Promega (NanoBRET Target Engagement K192 Kinase Selectivity System)
Method: as §1, §2, §3, §4

T1 sequence (P16591 whole entry): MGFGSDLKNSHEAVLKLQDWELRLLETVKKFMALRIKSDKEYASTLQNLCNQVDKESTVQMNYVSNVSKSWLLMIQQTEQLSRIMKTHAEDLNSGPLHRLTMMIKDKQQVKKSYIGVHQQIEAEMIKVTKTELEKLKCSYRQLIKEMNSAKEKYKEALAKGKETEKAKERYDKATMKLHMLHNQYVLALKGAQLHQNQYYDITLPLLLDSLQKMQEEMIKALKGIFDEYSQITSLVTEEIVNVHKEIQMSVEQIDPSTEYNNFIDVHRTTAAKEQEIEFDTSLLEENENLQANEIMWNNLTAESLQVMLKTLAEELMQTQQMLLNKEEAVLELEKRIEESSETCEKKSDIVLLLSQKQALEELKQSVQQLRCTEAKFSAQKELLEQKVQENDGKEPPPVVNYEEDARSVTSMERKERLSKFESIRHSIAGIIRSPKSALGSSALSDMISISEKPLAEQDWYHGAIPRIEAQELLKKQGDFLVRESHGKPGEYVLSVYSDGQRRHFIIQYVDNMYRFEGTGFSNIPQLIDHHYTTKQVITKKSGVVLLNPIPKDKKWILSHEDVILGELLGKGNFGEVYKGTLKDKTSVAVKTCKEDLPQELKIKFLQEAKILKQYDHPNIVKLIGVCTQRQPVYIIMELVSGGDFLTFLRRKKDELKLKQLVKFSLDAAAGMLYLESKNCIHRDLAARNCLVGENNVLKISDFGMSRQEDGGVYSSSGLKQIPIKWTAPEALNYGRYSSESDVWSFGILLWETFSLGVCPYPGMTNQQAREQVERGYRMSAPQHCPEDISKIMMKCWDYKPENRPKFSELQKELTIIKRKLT

Q: With `CCC(=O)Nc1cc(Nc2cc(NC3CC3)n3ncc(C#N)c3n2)c(F)cc1N1CCC[C@H](NC)C1` [Compound 2, (S)-N-(5-((3-cyano-7-(cyclopropylamino)pyrazolo[1,5-a]pyrimidin-5-yl)amino)-4-fluoro-2-(3-(methylamino)piperidin-1-yl)phenyl)propionamide] as the compound, how does the receptor occupancy at 10 µM (FER) read?
A: The receptor occupancy at 10 µM was 3.1%.

Q: And the receptor occupancy at 10 µM (PHKG2)?
A: Its receptor occupancy at 10 µM is 29.7%.

Q: What about the receptor occupancy at 10 µM (MAP3K11) of the same compound?
A: Its receptor occupancy at 10 µM is 19.5%.

Q: And the receptor occupancy at 10 µM (PRKX)?
A: The receptor occupancy at 10 µM was 10.6%.

Q: And the receptor occupancy at 10 µM (AURKB)?
A: The receptor occupancy at 10 µM was 1.4%.

Q: And the receptor occupancy at 10 µM (CAMK2D)?
A: The receptor occupancy at 10 µM was 18.4%.

Q: And the receptor occupancy at 10 µM (TNNI3K)?
A: The receptor occupancy at 10 µM was 8%.

Q: What about the receptor occupancy at 10 µM (ABL2) of the same compound?
A: The receptor occupancy at 10 µM was 9.4%.

Q: What about the receptor occupancy at 10 µM (CDK10 + L2) of the same compound?
A: Its receptor occupancy at 10 µM is 13.6%.

Q: And the receptor occupancy at 10 µM (CDK3 + E1)?
A: The receptor occupancy at 10 µM was 12.1%.

Q: And the receptor occupancy at 10 µM (ITK)?
A: The receptor occupancy at 10 µM was 11.9%.

Q: And the receptor occupancy at 10 µM (RON)?
A: The receptor occupancy at 10 µM was 7.6%.

Q: And the receptor occupancy at 10 µM (TYRO3)?
A: The receptor occupancy at 10 µM was 3.9%.

Q: And the “% occupancy at 10 μM” value (CLK1; CLK1, HEK293)?
A: Its value is 76%.

Q: What about the receptor occupancy at 10 µM (CLK1; HEK293, CLK1) of the same compound?
A: Its receptor occupancy at 10 µM is 76.2%.

Q: What about the receptor occupancy at 10 µM (ERN1) of the same compound?
A: The receptor occupancy at 10 µM was 3%.

Q: What about the receptor occupancy at 10 µM (PLK3) of the same compound?
A: Its receptor occupancy at 10 µM is 15.5%.

Q: And the receptor occupancy at 10 µM (INSR)?
A: Its receptor occupancy at 10 µM is 1.2%.

Q: And the “% occupancy at 10 μM” value (CSNK2A2; CSNK2A2, HEK293)?
A: Its value is 97%.

Q: And the receptor occupancy at 10 µM (CSNK2A2; HEK293, CSNK2A2)?
A: The receptor occupancy at 10 µM was 96.9%.

Q: And the “% occupancy at 10 μM” value (CLK2; CLK2, HEK293)?
A: Its value is 85%.

Q: And the receptor occupancy at 10 µM (CLK2; HEK293, CLK2)?
A: The receptor occupancy at 10 µM was 84.8%.

Q: What about the “% occupancy at 10 μM” value (DAPK2; DAPK2, HEK293) of the same compound?
A: Its value is 72%.

Q: What about the receptor occupancy at 10 µM (DAPK2; HEK293, DAPK2) of the same compound?
A: The receptor occupancy at 10 µM was 72.1%.

Q: And the receptor occupancy at 10 µM (STK16)?
A: The receptor occupancy at 10 µM was 16.4%.

Q: And the receptor occupancy at 10 µM (BTK)?
A: The receptor occupancy at 10 µM was 3%.

Q: What about the receptor occupancy at 10 µM (TXK) of the same compound?
A: Its receptor occupancy at 10 µM is -3.2%.

Q: What about the receptor occupancy at 10 µM (SIK3) of the same compound?
A: Its receptor occupancy at 10 µM is 2.7%.

Q: And the receptor occupancy at 10 µM (EPHB4)?
A: Its receptor occupancy at 10 µM is 4.4%.

Q: And the receptor occupancy at 10 µM (SNF1LK2)?
A: The receptor occupancy at 10 µM was -4.8%.

Q: And the receptor occupancy at 10 µM (MAP4K2)?
A: Its receptor occupancy at 10 µM is 31.4%.
